Assay results from PMC9944927, “Mutant structure of metabolic switch protein in complex with monomeric c-di-GMP reveals a potential mechanism of protein-mediated ligand dimerization” (Scientific Reports, 2023).

Experiments:
SmbA [1] = molecular target: T1, SmbA (Caulobacter vibrioides, UniProt Q9A5E6, DEL198-215); experiment: X-ray crystal structure at […] Å; ITC ([…] stoichiometry); type: binding
T1 construct: gene CC_2504; SmbA∆loop, partial loop 7 deletion (fragment 198–215 deleted), His6
T1 sequence (Q9A5E6 with tags, fused parts or gaps DEL198-215): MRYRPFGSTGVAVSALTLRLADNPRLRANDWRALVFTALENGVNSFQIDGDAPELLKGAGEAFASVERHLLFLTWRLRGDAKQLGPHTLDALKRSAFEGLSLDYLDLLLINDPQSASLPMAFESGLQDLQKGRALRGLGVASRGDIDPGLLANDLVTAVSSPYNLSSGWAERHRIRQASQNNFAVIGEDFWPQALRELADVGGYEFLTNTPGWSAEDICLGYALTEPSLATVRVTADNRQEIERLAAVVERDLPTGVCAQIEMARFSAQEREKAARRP

SmbA [2] = molecular target: T2, SmbA (Caulobacter vibrioides, UniProt Q9A5E6); experiment: ITC (apparent Kd); AUC sedimentation shift; type: binding
T2 construct: gene CC_2504; SmbAwt, His6
T2 sequence (Q9A5E6 1-296): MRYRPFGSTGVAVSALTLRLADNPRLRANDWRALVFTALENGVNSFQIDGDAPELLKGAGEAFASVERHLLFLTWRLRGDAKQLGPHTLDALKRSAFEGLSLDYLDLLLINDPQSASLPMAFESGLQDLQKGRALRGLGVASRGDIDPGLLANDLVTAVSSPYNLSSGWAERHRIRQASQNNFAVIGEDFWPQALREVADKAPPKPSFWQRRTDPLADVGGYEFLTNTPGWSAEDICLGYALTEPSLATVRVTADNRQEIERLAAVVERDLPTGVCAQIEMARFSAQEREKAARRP

Question: How did the Kd (SmbA [1]) turn out when Nc1nc2c(ncn2[C@@H]2O[C@@H]3CO[P@](=O)(O)O[C@H]4[C@@H](O)[C@H](n5cnc6c(=O)[nH]c(N)nc65)O[C@@H]4CO[P@](=O)(O)O[C@H]3[C@H]2O)c(=O)[nH]1 [c-di-GMP] was run?
Answer: Its Kd is 1800 nM.

Question: And the Kd (SmbA [2])?
Answer: The Kd was 300 nM.
